#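 A five-concentration, 48-hour dose response in 96-well plates underlies each endpoint, interpolated linearly between surrounding concentrations. TGI: concentration producing complete growth inhibition.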
# Experiments:
# Assay in all cases: growth of human tumour cells (NCI), 48 h
# 786-0 renal = tested on: 786-0 renal
# A498 renal = tested on: A498 renal
# A549 NSCLC = tested on: A549 NSCLC
# ACHN renal = tested on: ACHN renal
# CAKI-1 renal = tested on: CAKI-1 renal
# CCRF-CEM leukemia = tested on: CCRF-CEM leukemia
# COLO 205 colon = tested on: COLO 205 colon
# DLD-1 colon = tested on: DLD-1 colon
# DMS 114 small cell lung = tested on: DMS 114 small cell lung
# DMS 273 small cell lung = tested on: DMS 273 small cell lung
# EKVX NSCLC = tested on: EKVX NSCLC
# HCT-116 colon = tested on: HCT-116 colon
# HCT-15 colon = tested on: HCT-15 colon
# HL-60(TB) leukemia = tested on: HL-60(TB) leukemia
# HOP-18 NSCLC = tested on: HOP-18 NSCLC
# HOP-62 NSCLC = tested on: HOP-62 NSCLC
# HOP-92 NSCLC = tested on: HOP-92 NSCLC
# HT29 colon = tested on: HT29 colon
# IGROV1 ovarian = tested on: IGROV1 ovarian
# K-562 leukemia = tested on: K-562 leukemia
# KM12 colon = tested on: KM12 colon
# KM20L2 colon = tested on: KM20L2 colon
# LOX IMVI melanoma = tested on: LOX IMVI melanoma
# LXFL 529 NSCLC = tested on: LXFL 529 NSCLC
# M14 melanoma = tested on: M14 melanoma
# M19-MEL melanoma = tested on: M19-MEL melanoma
# MALME-3M melanoma = tested on: MALME-3M melanoma
# MOLT-4 leukemia = tested on: MOLT-4 leukemia
# NCI-H226 lung = tested on: NCI-H226 lung
# NCI-H23 lung = tested on: NCI-H23 lung
# NCI-H460 lung = tested on: NCI-H460 lung
# NCI-H522 lung = tested on: NCI-H522 lung
# OVCAR-3 ovarian = tested on: OVCAR-3 ovarian
# OVCAR-4 ovarian = tested on: OVCAR-4 ovarian
# OVCAR-5 ovarian = tested on: OVCAR-5 ovarian
# OVCAR-8 ovarian = tested on: OVCAR-8 ovarian
# RPMI-8226 leukemia = tested on: RPMI-8226 leukemia
# RXF 393 renal = tested on: RXF 393 renal
# RXF-631 renal = tested on: RXF-631 renal
# SF-268 CNS = tested on: SF-268 CNS
# SF-295 CNS = tested on: SF-295 CNS
# SF-539 CNS = tested on: SF-539 CNS
# SK-MEL-2 melanoma = tested on: SK-MEL-2 melanoma
# SK-MEL-28 melanoma = tested on: SK-MEL-28 melanoma
# SK-MEL-5 melanoma = tested on: SK-MEL-5 melanoma
# SK-OV-3 ovarian = tested on: SK-OV-3 ovarian
# SN12C renal = tested on: SN12C renal
# SNB-19 CNS = tested on: SNB-19 CNS
# SNB-75 CNS = tested on: SNB-75 CNS
# SNB-78 CNS = tested on: SNB-78 CNS
# SR leukemia = tested on: SR leukemia
# SW-620 colon = tested on: SW-620 colon
# TK-10 renal = tested on: TK-10 renal
# U251 CNS = tested on: U251 CNS
# UACC-257 melanoma = tested on: UACC-257 melanoma
# UACC-62 melanoma = tested on: UACC-62 melanoma
# UO-31 renal = tested on: UO-31 renal
# XF 498 CNS = tested on: XF 498 CNS
# HCC-2998 colon = tested on: HCC-2998 colon
smiles,measurement,setting,value
CC1(C)COC2(OC1)C1=NS(=O)(=O)CC13CCC2C3(C)C (stereo not drawn),TGI,786-0 renal,> 100 µM
same,TGI,A498 renal,> 100 µM
same,TGI,A549 NSCLC,> 100 µM
same,TGI,ACHN renal,> 100 µM
same,TGI,CAKI-1 renal,> 100 µM
same,TGI,CCRF-CEM leukemia,> 100 µM
same,TGI,COLO 205 colon,> 100 µM
same,TGI,DLD-1 colon,> 100 µM
same,TGI,DMS 114 small cell lung,> 100 µM
same,TGI,DMS 273 small cell lung,> 100 µM
same,TGI,EKVX NSCLC,> 100 µM
same,TGI,HCT-116 colon,> 100 µM
same,TGI,HCT-15 colon,> 100 µM
same,TGI,HL-60(TB) leukemia,> 100 µM
same,TGI,HOP-18 NSCLC,> 100 µM
same,TGI,HOP-62 NSCLC,> 100 µM
same,TGI,HOP-92 NSCLC,> 100 µM
same,TGI,HT29 colon,> 100 µM
same,TGI,IGROV1 ovarian,> 100 µM
same,TGI,K-562 leukemia,> 100 µM
same,TGI,KM12 colon,> 100 µM
same,TGI,KM20L2 colon,> 100 µM
same,TGI,LOX IMVI melanoma,> 100 µM
same,TGI,LXFL 529 NSCLC,> 100 µM
same,TGI,M14 melanoma,> 100 µM
same,TGI,M19-MEL melanoma,> 100 µM
same,TGI,MALME-3M melanoma,> 100 µM
same,TGI,MOLT-4 leukemia,> 100 µM
same,TGI,NCI-H226 lung,> 100 µM
same,TGI,NCI-H23 lung,> 100 µM
same,TGI,NCI-H460 lung,> 100 µM
same,TGI,NCI-H522 lung,> 100 µM
same,TGI,OVCAR-3 ovarian,> 100 µM
same,TGI,OVCAR-4 ovarian,> 100 µM
same,TGI,OVCAR-5 ovarian,> 100 µM
same,TGI,OVCAR-8 ovarian,> 100 µM
same,TGI,RPMI-8226 leukemia,> 100 µM
same,TGI,RXF 393 renal,> 100 µM
same,TGI,RXF-631 renal,> 100 µM
same,TGI,SF-268 CNS,> 100 µM
same,TGI,SF-295 CNS,> 100 µM
same,TGI,SF-539 CNS,> 100 µM
same,TGI,SK-MEL-2 melanoma,> 100 µM
same,TGI,SK-MEL-28 melanoma,> 100 µM
same,TGI,SK-MEL-5 melanoma,> 100 µM
same,TGI,SK-OV-3 ovarian,> 100 µM
same,TGI,SN12C renal,> 100 µM
same,TGI,SNB-19 CNS,> 100 µM
same,TGI,SNB-75 CNS,> 100 µM
same,TGI,SNB-78 CNS,> 100 µM
same,TGI,SR leukemia,> 100 µM
same,TGI,SW-620 colon,> 100 µM
same,TGI,TK-10 renal,> 100 µM
same,TGI,U251 CNS,> 100 µM
same,TGI,UACC-257 melanoma,> 100 µM
same,TGI,UACC-62 melanoma,> 100 µM
same,TGI,UO-31 renal,> 100 µM
same,TGI,XF 498 CNS,> 100 µM
CC(C)(C)c1cc(Cc2ccc([N+](C)(C)C)cc2)c(O)c(C(C)(C)C)c1,TGI,786-0 renal,57.7 µM
same,TGI,A498 renal,> 100 µM
same,TGI,A549 NSCLC,> 100 µM
same,TGI,ACHN renal,> 100 µM
same,TGI,CAKI-1 renal,> 100 µM
same,TGI,CCRF-CEM leukemia,29.1 µM
same,TGI,DLD-1 colon,> 100 µM
same,TGI,DMS 114 small cell lung,20.2 µM
same,TGI,DMS 273 small cell lung,22.2 µM
same,TGI,EKVX NSCLC,> 100 µM
same,TGI,HCC-2998 colon,29.9 µM
same,TGI,HCT-116 colon,31.5 µM
same,TGI,HCT-15 colon,> 100 µM
same,TGI,HL-60(TB) leukemia,8.27 µM
same,TGI,HOP-18 NSCLC,47.3 µM
same,TGI,HOP-62 NSCLC,33.5 µM
same,TGI,HT29 colon,32.7 µM
same,TGI,IGROV1 ovarian,28.1 µM
same,TGI,K-562 leukemia,28.1 µM
same,TGI,KM12 colon,29.6 µM
same,TGI,KM20L2 colon,74.8 µM
same,TGI,LOX IMVI melanoma,30.6 µM
same,TGI,LXFL 529 NSCLC,27.1 µM
same,TGI,M14 melanoma,40.9 µM
same,TGI,M19-MEL melanoma,26.6 µM
same,TGI,MALME-3M melanoma,34.2 µM
same,TGI,MOLT-4 leukemia,26.1 µM
same,TGI,NCI-H23 lung,36.1 µM
same,TGI,NCI-H460 lung,37.9 µM
same,TGI,OVCAR-4 ovarian,> 100 µM
same,TGI,OVCAR-5 ovarian,59.7 µM
same,TGI,OVCAR-8 ovarian,35.9 µM
same,TGI,RPMI-8226 leukemia,31.9 µM
same,TGI,RXF 393 renal,38.4 µM
same,TGI,RXF-631 renal,> 100 µM
same,TGI,SF-268 CNS,28.5 µM
same,TGI,SF-295 CNS,67.5 µM
same,TGI,SF-539 CNS,30.5 µM
same,TGI,SK-MEL-2 melanoma,30.2 µM
same,TGI,SK-MEL-28 melanoma,25 µM
same,TGI,SK-MEL-5 melanoma,22.9 µM
same,TGI,SK-OV-3 ovarian,95.1 µM
same,TGI,SN12C renal,28.7 µM
same,TGI,SNB-19 CNS,25.9 µM
same,TGI,SNB-75 CNS,22.1 µM
same,TGI,SNB-78 CNS,31.3 µM
same,TGI,SR leukemia,29.8 µM
same,TGI,SW-620 colon,59.2 µM
same,TGI,TK-10 renal,78.4 µM
same,TGI,U251 CNS,25.4 µM
same,TGI,UACC-257 melanoma,31.7 µM
same,TGI,UACC-62 melanoma,27.9 µM
same,TGI,UO-31 renal,> 100 µM
same,TGI,XF 498 CNS,25.9 µM
Nc1nc(=S)c2c(ncn2CC(O)CO)[nH]1 (stereo not drawn),TGI,786-0 renal,> 100 µM
same,TGI,A498 renal,> 100 µM
same,TGI,A549 NSCLC,> 100 µM
same,TGI,ACHN renal,> 100 µM
same,TGI,CAKI-1 renal,> 100 µM
same,TGI,CCRF-CEM leukemia,> 100 µM
same,TGI,COLO 205 colon,> 100 µM
same,TGI,DLD-1 colon,> 100 µM
same,TGI,DMS 114 small cell lung,> 100 µM
same,TGI,DMS 273 small cell lung,> 100 µM
same,TGI,EKVX NSCLC,> 100 µM
same,TGI,HCT-116 colon,> 100 µM
same,TGI,HCT-15 colon,> 100 µM
same,TGI,HL-60(TB) leukemia,> 100 µM
same,TGI,HOP-18 NSCLC,> 100 µM
same,TGI,HOP-62 NSCLC,> 100 µM
same,TGI,HOP-92 NSCLC,> 100 µM
same,TGI,HT29 colon,> 100 µM
same,TGI,IGROV1 ovarian,> 100 µM
same,TGI,K-562 leukemia,> 100 µM
same,TGI,KM12 colon,> 100 µM
same,TGI,KM20L2 colon,> 100 µM
same,TGI,LOX IMVI melanoma,> 100 µM
same,TGI,LXFL 529 NSCLC,> 100 µM
same,TGI,M14 melanoma,> 100 µM
same,TGI,M19-MEL melanoma,> 100 µM
same,TGI,MALME-3M melanoma,> 100 µM
same,TGI,NCI-H226 lung,> 100 µM
same,TGI,NCI-H460 lung,> 100 µM
same,TGI,NCI-H522 lung,> 100 µM
same,TGI,OVCAR-3 ovarian,> 100 µM
same,TGI,OVCAR-4 ovarian,> 100 µM
same,TGI,OVCAR-5 ovarian,> 100 µM
same,TGI,OVCAR-8 ovarian,> 100 µM
same,TGI,RPMI-8226 leukemia,> 100 µM
same,TGI,RXF 393 renal,> 100 µM
same,TGI,RXF-631 renal,> 100 µM
same,TGI,SF-268 CNS,> 100 µM
same,TGI,SF-295 CNS,> 100 µM
same,TGI,SF-539 CNS,> 100 µM
same,TGI,SK-MEL-2 melanoma,> 100 µM
same,TGI,SK-MEL-28 melanoma,> 100 µM
same,TGI,SK-MEL-5 melanoma,> 100 µM
same,TGI,SK-OV-3 ovarian,> 100 µM
same,TGI,SN12C renal,> 100 µM
same,TGI,SNB-19 CNS,> 100 µM
same,TGI,SNB-75 CNS,> 100 µM
same,TGI,SNB-78 CNS,> 100 µM
same,TGI,SR leukemia,> 100 µM
same,TGI,SW-620 colon,> 100 µM
same,TGI,TK-10 renal,> 100 µM
same,TGI,U251 CNS,> 100 µM
same,TGI,UACC-257 melanoma,> 100 µM
same,TGI,UACC-62 melanoma,> 100 µM
same,TGI,UO-31 renal,> 100 µM
same,TGI,XF 498 CNS,> 100 µM

# Reference: PubChem BioAssay (NCI)
